Assay results published in patent publication US20240252486A1, “ALGOSTATIC AGENTS FOR PREVENTING TRANSITION FROM ACUTE TO CHRONIC PAIN” (The Regents of the University of California, priority 2021, published 2024).

Assays:
formalin-injected mice [1] = test: Conditioned place preference (spontaneous/ongoing pain) after formalin; assay type: in vivo, mouse; details: ARN19702 30 mg-kg^−1 IP once daily for 3 days starting 24 h after formalin; PFD14
Procedure: Preconditioning: 12 days after tissue damage, mice were placed in the two chamber CPP apparatus (for details see (63)) and the time spent in each chamber was recorded for 10 min and analyzed to determine preconditioning baseline.
Conditioning: Mice underwent single trial conditioning 24 h after preconditioning using a biased approach. In the morning of the conditioning day, animals received saline and were immediately placed into the preferred chamber (saline paired) of the CPP box for 30 min, with no access to the other chambers. Approximately 4 h later, mice received gabapentin (50 mg-kg^−1, IP) and were immediately confined in the non-preferred chamber for 30 min (gabapentin paired).
Preference test: On the test day (POD14 or PFD14), 12 h after the afternoon pairing, mice were placed back into the center of the CPP chambers with free access to all chambers for 10 min. Time (s) spent in each chamber was recorded and evaluated by a blind observer to determine preference.

formalin-injected mice [2] = test: Elevated plus maze test (anxiety-like behavior) after formalin; assay type: in vivo, mouse; details: ARN19702 30 mg-kg^−1 IP once daily for 3 days starting 24 h after formalin; PFD7
Procedure: (§1) Elevated plus maze test: We placed each mouse in the central platform of the maze, facing the open arm opposite to the experimenter, and behavior was recorded using the Debut video capture software (NCH Software, Canberra, Australia). A blinded observer measured the amount of time spent in the open and closed arms, as well as the number of open and closed arm entries. The open arms of the maze were illuminated at 150-170 lux and the closed arms at 40-50 lux.
as §1, with “lux. The anxiety index was calculated as follows: […]” for “lux.”

[3] = test system: spinal-cord transcription; test: RNA sequencing and metabolomic analysis of L4-L6 spinal cord; assay type: in vivo, mouse; details: systemic ARN19702 administration on PFD2-3
Procedure: RNA sequencing and bioinformatics analysis: We extracted total RNA with the RNeasy Mini Kit (Qiagen). Samples with RNA integrity number ≥8.5 were kept for library construction. cDNA synthesis, amplification, library construction, and sequencing were performed at Novogene (Bejing, China) using the Illumina NovaSeq platform with paired-end 150 bp (PE 150) sequencing strategy. Downstream analysis was performed using a combination of programs including STAR, HTseq, Cufflink and Novogene's wrapped scripts. Alignments were parsed using the STAR program and differential expressions were determined using DESeq2/edgeR. Gene Ontology (GO) and Kyoto Encyclopedia of Genes and Genomes (KEGG) enrichment were implemented using the ClusterProfiler.
Metabolomic analysis: Metabolomics analyses were performed at the West Coast Metabolomics Center of the University of California Davis, as described^55. Briefly, frozen lumbar spinal cord (L4-L6) fragments (˜5 mg) were homogenized in Eppendorf tubes (2 ml) for 2 min using metal spheres ([…] diameter) in a MM300 mill (Retsch, Germany). A mixture of isopropanol/acetonitrile/water (3/3/2, vol) was added to the grounded tissue (1 ml per 20 mg), stirred for 10 s and shaken at 4° C. for 5 min. […]

formalin-injected mice [4] = test: Formalin test: acute nocifensive behavior; details: pretreatment; ARN16186 10 mg-kg^−1 IP, ARN19702 30 mg-kg^−1 IP; wild-type mice, 1% formalin

SMILES: CCS(=O)(=O)c1ccccc1C(=O)N1CCN(c2nc3ccc(F)cc3s2)C[C@@H]1C [ARN19702]
- ongoing pain (formalin-injected mice [1]): normalizing
- anxiety-like behavior (formalin-injected mice [2]): normalizing
- transcriptional and metabolic changes in L4-L6 spinal cord on the following day [3]: prevented the appearance
- nocifensive response to formalin (formalin-injected mice [4]): prevents
